Target: T1, LK (R-selective alcohol dehydrogenase) (Lentilactobacillus kefiri, UniProt Q6WVP7)
T1 construct: gene adh; homo-tetramer; Mg2+ dependent; co-entrapped with FNR in porous ITO electrode
T1 sequence (Q6WVP7 1-252): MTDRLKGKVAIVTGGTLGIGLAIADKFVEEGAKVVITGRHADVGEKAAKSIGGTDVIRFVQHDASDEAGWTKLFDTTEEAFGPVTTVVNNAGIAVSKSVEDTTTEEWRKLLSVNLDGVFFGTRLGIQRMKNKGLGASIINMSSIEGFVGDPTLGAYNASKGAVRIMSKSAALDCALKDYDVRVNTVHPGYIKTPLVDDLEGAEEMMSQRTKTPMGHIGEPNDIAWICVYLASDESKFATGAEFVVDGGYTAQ
Test: chronoamperometry on FNR/ITO electrode, chiral GC
Assay type: biochemical
Conditions: pH 9.0, 50 mM TAPS, 25 °C, 5 mM Mg2+, 20 uM NADP+; enzyme entrapped with FNR and W110V in ITO electrode

C[C@@H](O)CCc1ccccc1 [(R)-4-phenyl-2-butanol] was tested, and the “chronoamperometry on FNR/ITO electrode, chiral GC” value was “conversion of (R)-4-phenyl-2-butanol to 4-phenyl-2-butanone by LK”.

— article PMC9578339, “Deracemisation and stereoinversion by a nanoconfined bidirectional enzyme cascade: dual control by electrochemistry and selective metal ion activation” (Chemical Communications (Cambridge, England), 2022)
